Earlier results on one compound are cited in PubChem BioAssay AID1259409 (Chemical Carcinogenesis Research Information System (CCRIS), 2018).

This series concerns rodent chemically induced tumor inhibition, incidence and multiplicity. The series is described as follows: CCRIS tumor inhibitor studies. The settings on record: Promoter: NONE USED.

As for `C=C(C)[C@H]1CC=C(C)CC1`, the “tumour outcome (control, treated, inhibition, significance)” value by setting is: (Carcinogen: 4-(METHYLNITROSAMINO)-1-(3-PYRIDYL)-1-BUTANONE, 64019-91-4, Dose [Inhibitor]: 0, 25 MG LIMONENE OIL 0.2 ML COTTONSEED OIL 1 HR PRIOR TO EACH CARCINOGEN DOSE (STUDY DURATION: 28 WK), Route [Inhibitor]: INTRAGASTRIC, Species: MOUSE, Strain/Sex: STRAIN-A/FEMALE, Target Tissue: Type of Lesion: FORESTOMACH: PAPILLOMA, Dose [Carcinogen]: 0.5 MG IN O.1 ML TRICAPRYLIN 2/WK FOR 8 WK) 17%, 0%, 100%,; (Carcinogen: 4-(METHYLNITROSAMINO)-1-(3-PYRIDYL)-1-BUTANONE, 64091-91-4, Dose [Inhibitor]: 0, 0.63% IN DIET FOR 17 WK BEGINNING 1 WK PRIOR TO CARCINOGEN DOSE (STUDY DURATION: 17 WK), Route [Inhibitor]: ORAL, Species: MOUSE, Strain/Sex: STRAIN-A/FEMALE, Target Tissue: Type of Lesion: LUNG: ADENOMA, Dose [Carcinogen]: 10 UMOL IN 0.1 ML SALINE ONCE) 100%, 96%, 4%, not significant; (Carcinogen: 4-(METHYLNITROSAMINO)-1-(3-PYRIDYL)-1-BUTANONE, 64091-91-4, Dose [Inhibitor]: 0, 25 MG IN 0.2 ML COTTONSEED OIL 1 HR PRIOR TO EACH CARCINOGEN DOSE (STUDY DURATION: 28 WK), Route [Inhibitor]: INTRAGASTRIC, Species: MOUSE, Strain/Sex: STRAIN-A/FEMALE, Target Tissue: Type of Lesion: FORESTOMACH: PAPILLOMA, Dose [Carcinogen]: 0.5 MG IN 0.1 ML TRICAPRYLIN 2/WK FOR 8 WK) 90%, 0%, 100%, p<0.001; (Carcinogen: 4-(METHYLNITROSAMINO)-1-(3-PYRIDYL)-1-BUTANONE, 64091-91-4, Dose [Inhibitor]: O, 25 MG LIMONENE FROM LEMON OIL IN 0.2 ML COTTONSEED OIL 1 HR PRIOR TO EACH CARCINOGEN DOSE (STUDY DURATION: 28 WK), Route [Inhibitor]: INTRAGASTRIC, Species: MOUSE, Strain/Sex: STRAIN-A/FEMALE, Target Tissue: Type of Lesion: FORESTOMACH: PAPILLOMA, Dose [Carcinogen]: 0.5 MG IN OIL ML TRICAPRYLIN 2/WK FOR 8 WK) 17%, 0%, 100%, not calculated; (Carcinogen: 7,12-DIMETHYLBENZ[A]ANTHRACENE, 57-97-6, Dose [Inhibitor]: 0, 1% IN DIET FOR 3 WK BEGINNING 2 WK PRIOR TO CARCINOGEN DOSE (STUDY DURATION: 20 WK), Route [Inhibitor]: ORAL, Species: RAT, Strain/Sex: WISTAR/FEMALE, Target Tissue: Type of Lesion: MAMMARY GLAND: CARCINOMA, Dose [Carcinogen]: 50 MG/KG IN SESAME OIL ONCE) 98%, 96%, 2%, not significant; (Carcinogen: 7,12-DIMETHYLBENZ[A]ANTHRACENE, 57-97-6, Dose [Inhibitor]: 0, 5% IN DIET BEGINNING POST CARCINOGEN TREATMENT AND CONTINUING FOR 25 WK (STUDY DURATION: 25 WK), Route [Inhibitor]: ORAL, Species: RAT, Strain/Sex: SPRAGUE-DAWLEY/FEMALE, Target Tissue: Type of Lesion: MAMMARY GLAND: TUMOR, Dose [Carcinogen]: 65 MG/KG IN SESAME OIL ONCE) 100%, 97%, 3%, not significant. Further, the “tumour outcome (control, treated, inhibition, significance)” value (Carcinogen: 7,12-DIMETHYLBENZ[A]ANTHRACENE, 57-97-6, Dose [Inhibitor]: 0, 5% IN DIET FOR 1 WK PRIOR TO AND 1 WK POST CARCINOGEN TREATMENT (STUDY DURATION: 25 WK), Route [Inhibitor]: ORAL, Species: RAT, Strain/Sex: SPRAGUE-DAWLEY/FEMALE, Target Tissue: Type of Lesion: MAMMARY GLAND: TUMOR, Dose [Carcinogen]: 65 MG/KG IN SESAME OIL ONCE) is 100%, 88%, 12%, not significant; the “tumour outcome (control, treated, inhibition, significance)” value (Carcinogen: 7,12-DIMETHYLBENZ[A]ANTHRACENE, 57-97-6, Dose [Inhibitor]: 0, 36 MMOL/KG IN DIET FOR 24 WK BEGINNING 2 WK PRIOR TO CARCINOGEN DOSE (STUDY DURATION: 24 WK), Route [Inhibitor]: ORAL, Species: RAT, Strain/Sex: SPRAGUE-DAWLEY/FEMALE, Target Tissue: Type of Lesion: MAMMARY GLAND: TUMOR, Dose [Carcinogen]: 65 MG/KG BW ONCE) is listed as 91%, 75%, 18%, not significant; the “tumour outcome (control, treated, inhibition, significance)” value (Carcinogen: BENZO[A]PYRENE, 50-32-8, Dose [Inhibitor]: 10 MG IN 0.1 ML ACETONE 3/WK ADMINISTERED SIMULTANEOUSLY WITH CARCINOGEN FOR DURATION OF STUDY (STUDY DURATION: 440 D), Route [Inhibitor]: DERMAL, Species: MOUSE, Strain/Sex: ICR/FEMALE, Target Tissue: Type of Lesion: SKIN: PAPILLOMA, Dose [Carcinogen]: 5 UG IN 0.1 ML ACETONE 3/WK FOR DURATION OF STUDY) is listed as 16/50 (32%), 13/50 (26%), 19%, not calculated; the “tumour outcome (control, treated, inhibition, significance)” value (Carcinogen: BENZO[A]PYRENE, 50-32-8, Dose [Inhibitor]: 10 MG IN 0.1 ML ACETONE 3/WK ADMINISTERED SIMULTANEOUSLY WITH CARCINOGEN FOR DURATION OF STUDY (STUDY DURATION: 440 D), Route [Inhibitor]: DERMAL, Species: MOUSE, Strain/Sex: ICR/FEMALE, Target Tissue: Type of Lesion: SKIN: SQUAMOUS CARCINOMA, Dose [Carcinogen]: 5 UG IN 0.1 ML ACETONE 3/WK FOR DURATION OF STUDY) is given as 12/50 (24%), 4/50 (8%), 67%, not calculated; the “tumour outcome (control, treated, inhibition, significance)” value (Carcinogen: DIETHYLNITROSAMINE, 55-18-5, N-METHYL-N-NITROSOUREA, 684-93-5, N-BUTYL-N-(4-HYDROXYBUTYL)NITROSAMINE, 3817-11-6, 1, Carcinogen: DIETHYLNITROSAMINE, 55-18-5, N-METHYL-N-NITROSOUREA, 684-93-5, N-BUTYL-N-(4-HYDROXYBUTYL)NITROSAMINE, 3817-11-6, 1, Dose [Inhibitor]: 0, 0.5% IN DIET FOR 24 WK BEGINNING POST CARCINOGEN TREATMENT (STUDY DURATION: 28 WK), Route [Inhibitor]: ORAL, Species: RAT, Strain/Sex: F344/MALE, Target Tissue: Type of Lesion: KIDNEY: ADENOMA, Dose [Carcinogen]: 100 MG/KG DEN IP ONCE, 20 MG/KG MNU IP 2/WK FOR FIRST 2 WK, 0.05% BBN IN DRINKING WATER DURING FIRST 2 WK, 40 MG/KG D, Dose [Carcinogen]: 100 MG/KG DEN IP ONCE, 20 MG/KG MNU IP 2/WK FOR FIRST 2 WK, 0.05% BBN IN DRINKING WATER DURING FIRST 2 WK, 40 MG/KG D) is listed as 4/19 (21%), 6/20 (30%), -43%, not significant; the “tumour outcome (control, treated, inhibition, significance)” value (Carcinogen: DIETHYLNITROSAMINE, 55-18-5, N-METHYL-N-NITROSOUREA, 684-93-5, N-BUTYL-N-(4-HYDROXYBUTYL)NITROSAMINE, 3817-11-6, 1, Carcinogen: DIETHYLNITROSAMINE, 55-18-5, N-METHYL-N-NITROSOUREA, 684-93-5, N-BUTYL-N-(4-HYDROXYBUTYL)NITROSAMINE, 3817-11-6, 1, Dose [Inhibitor]: 0, 1% IN DIET FOR 24 WK BEGINNING POST CARCINOGEN TREATMENT (STUDY DURATION: 28 WK), Route [Inhibitor]: ORAL, Species: RAT, Strain/Sex: F344/MALE, Target Tissue: Type of Lesion: KIDNEY: ADENOMA, Dose [Carcinogen]: 100 MG/KG DEN IP ONCE, 20 MG/KG MNU IP 2/WK FOR FIRST 2 WK, 0.05% BBN IN DRINKING WATER DURING FIRST 2 WK, 40 MG/KG D, Dose [Carcinogen]: 100 MG/KG DEN IP ONCE, 20 MG/KG MNU IP 2/WK FOR FIRST 2 WK, 0.05% BBN IN DRINKING WATER DURING FIRST 2 WK, 40 MG/KG D) is 4/19 (21%), 5/19 (26%), -24%, not significant. The “tumour outcome (control, treated, inhibition, significance)” value (Carcinogen: DIETHYLNITROSAMINE, 55-18-5, N-METHYL-N-NITROSOUREA, 684-93-5, N-BUTYL-N-(4-HYDROXYBUTYL)NITROSAMINE, 3817-11-6, 1, Carcinogen: DIETHYLNITROSAMINE, 55-18-5, N-METHYL-N-NITROSOUREA, 684-93-5, N-BUTYL-N-(4-HYDROXYBUTYL)NITROSAMINE, 3817-11-6, 1, Dose [Inhibitor]: 0, 2% IN DIET FOR 24 WK BEGINNING POST CARCINOGEN TREATMENT (STUDY DURATION: 28 WK), Route [Inhibitor]: ORAL, Species: RAT, Strain/Sex: F344/MALE, Target Tissue: Type of Lesion: KIDNEY: ADENOMA, Dose [Carcinogen]: 100 MG/KG DEN IP ONCE, 20 MG/KG MNU IP 2/WK FOR FIRST 2 WK, 0.05% BBN IN DRINKING WATER DURING FIRST 2 WK, 40 MG/KG D, Dose [Carcinogen]: 100 MG/KG DEN IP ONCE, 20 MG/KG MNU IP 2/WK FOR FIRST 2 WK, 0.05% BBN IN DRINKING WATER DURING FIRST 2 WK, 40 MG/KG D) is listed as 4/19 (21%), 13/19 (68%), -224%, p<0.01; the “tumour outcome (control, treated, inhibition, significance)” value (Carcinogen: METHYLCHOLANTHRENE, 56-49-5, Dose [Inhibitor]: 0, 0.5 ML 1/WK FOR 1 YR BEGINNING POST CARCINOGEN TREATMENT (STUDY DURATION: 24 MO), Route [Inhibitor]: GAVAGE, Species: MOUSE, Strain/Sex: SWISS/FEMALE, Target Tissue: Type of Lesion: LUNG: PAPILLARY ADENOMA AND ADENOCARCINOMA, Dose [Carcinogen]: 0.01 MG ON D 1, 7, 14 AND 21 AFTER BIRTH) is listed as 7/11 (64%), 8/12 (67%), -5%, not calculated; the “tumour outcome (control, treated, inhibition, significance)” value (Carcinogen: METHYLCHOLANTHRENE, 56-49-5, Dose [Inhibitor]: 0, 0.5 ML 1/WK FOR 1 YR BEGINNING POST CARCINOGEN TREATMENT (STUDY DURATION: 24 MO), Route [Inhibitor]: GAVAGE, Species: MOUSE, Strain/Sex: SWISS/MALE, Target Tissue: Type of Lesion: LIVER: HEPATOCELLULAR ADENOMA AND CARCINOMA, Dose [Carcinogen]: 0.01 MG ON D 1, 7, 14 AND 21 AFTER BIRTH) was 3/13 (23%), 2/14 (14%), 39%, not calculated; the “tumour outcome (control, treated, inhibition, significance)” value (Carcinogen: METHYLCHOLANTHRENE, 56-49-5, Dose [Inhibitor]: 0, 0.5 ML 1/WK FOR 1 YR BEGINNING POST CARCINOGEN TREATMENT (STUDY DURATION: 24 MO), Route [Inhibitor]: GAVAGE, Species: MOUSE, Strain/Sex: SWISS/MALE, Target Tissue: Type of Lesion: LUNG: PAPILLARY ADENOMA AND ADENOCARCINOMA, Dose [Carcinogen]: 0.01 MG ON D 1, 7, 14 AND 21 AFTER BIRTH) was 10/13 (77%), 7/14 (50%), 35%, not calculated.
